Results on one compound are retold here after US8501722B2, “Methods and compositions for treating bacterial infection” (priority 2009, dated 2013).

The test system of one experiment is SKKanGAS. Nature of the experiment: Growth-based turbidometric screen, SKKanGAS under kanamycin (kanamycin resistance gene under ska promoter). The class given is cell-based, Group A Streptococcus. The following applies: dose response under kanamycin selection, FIG. 11. The text has this: A GAS strain was generated to have kanamycin resistance gene under the control of ski promoter to be used to screen for SK inhibitors. A transgenic GAS has been generated in SK(+)GAS host so that kanamycin resistance gene is driven by ska promoter in an extrachromosomal plasmid. The engineered GAS strain (SKKanGAS) was also kanamycin resistant. This kanamycin resistance gene in SK(−)GAS strain is within the omega-Km2 element whose promoter is independent of ska promoter (Khil et al., J. Infect. Dis. 2003; 188:497-505; Ringdahl et al., J. Biol. Chem. 1998; 273:6424-6430). As a result, SK(−)GAS can serve as a control in the screen for SK promoter to weed out compounds that inhibit GAS growth or interfere with kanamycin resistance protein function. […] A cutoff criterion was set to select compounds that can inhibit 50% growth in SKKanGAS while inhibiting less than 10% growth in SK(−)GAS. A total of 95 compounds met this criterion. As a result, these compounds were chosen for dose response assays and pIC50 of growth inhibition of each hit compound was then estimated. […] An example is given as FIG. 10.
Only SKKanGAS is used for screening in the primary screening. Briefly, 30 μl THY medium containing 20 μg/ml kanamycin is first plated into 384-well plates (384 microtiter plate, Corning #3701) and compounds are added into the wells. SKKanGAS strain is grown to OD600 nm=0.8. SKKanGAS is then diluted 12.5 fold into 20 μg/ml kanamycin THY medium. SKKanGAS mixture (10 μl) is added into each well of the 384-well plates. […] The plates are cultured at 37° C. for 16-20 hours. Growth of bacteria in each well is measured by absorbance at 600 nm. Z′>0.5, which is compatible with high throughput screening, has been typically obtained with the 384-well plate format in which 55,000 small compounds have been screened. […] SKKanGAS is a BSL2 level agent and can be stored at −80° C. SKKanGAS can be cultured at 37° C. in THY or Bill medium which is commercially available (Fisher Scientific, Pittsburgh, Pa.).
Once hit compounds have been identified by the primary screening, they are applied to dose response assays with both SKKanGAS and SK(−)GAS stains. SKKanGAS and SK(−)GAS are grown in 20 μg/ml kanamycin with serial dilution of hit compounds (DMSO final concentration=1% in THY medium). Plates are incubated at 37° C. for 15-20 hours in a climate controlled room (humidity 50%). The absorbance is measured at 600 nm. pIC50 of growth inhibition of each hit compound is then determined. Compounds that with at least 10 fold lower IC50 in SKKanGAS than SK(−)GAS strain are identified and subjected to secondary confirmatory assay. As a result, dose response assay identifies and eliminates most nonspecific compounds that may inhibit GAS growth or interfere with kanamycin resistance protein function.

The next experiment deals with SK(+)GAS (UMAA2616). Put plainly: Survival of human plasminogen transgenic (Tg+) mice infected with GAS. The following applies: 6*10^5 CFU SK(+)GAS; 5 μg per mouse intraperitoneally daily for 5 days, starting one day after infection. The class given is in vivo. The procedure: To examine the in vivo efficacy of compounds CCGC, CCGE, and CCGF, Tg+ mice were first infected with 6*10^5 CFU SK(+)GAS, then injected with 5 μg of test compound per mouse intraperitoneally daily for 5 days, starting one day after infection. […] In some embodiments, small compound are delivered continuously through an ALZET® Osmotic Pump (DURECT Corporation, Cupertino, Calif.).
Tg+ mice are then used to test the efficacy of compounds in attenuating the virulence of GAS infection. 20 Tg+ mice are infected with 10^5 CFU of SK(+)GAS then injected with the estimated experimental doses of the compounds two hours later. Survival is monitored for 9 days, while a control group of Tg+ mice will be infected with SK(+)GAS injected with DMSO. The comparison of mortalities between the two groups is analyzed as described above in the toxicity test. Treating mice with compound post-infection helps avoid potential side-effects of toxic or growth inhibition of compound on SK(+)GAS at the time of infection. As a result, the effect of compound on mice survival is a more authentic reflection of the efficacy of compound on inhibiting GAS virulence. Possible scenarios include:
This example describes the in vivo efficacy of compound 575096. Human plasminogen transgenic mice (Tg+) were first infected with 10^5″^6 CFUUMAA2616, then injected with 5-30 lag of test compound per mouse intraperitoneally daily for 5 days, starting one day after infection.

For `COC(=O)c1ccccc1Sc1c(-c2ccccc2)nc2ccccn12` [CCGC], the “effect on SKKanGAS and SK-GAS growth” value in the experiment with SKKanGAS is reported as “specific inhibition of SKKanGAS growth under kanamycin selection”. In addition, the “survival rate of Tg+ mice compared to DMSO control group” value in the experiment with SK(+)GAS (UMAA2616) is “No improvement”.
